Experimental data published in US7521236B2, “Sulfur-oxidizing plant growth promoting rhizobacteria for enhanced canola performance” (priority 2002, dated 2009).

Experiments:
Format in all cases: in vivo
canola = experiment: Field trial 2002, Dauphin, MB; conditions: canola seed, Dauphin field site
Experimental: In 2002, field trials were carried out using three canola PGPR strains. The canola trials were planted through commercial seed planter using bacteria inoculated powdered peat-based carrier material coated seeds. The cultivar used was the same as 2001. All field trials were randomized complete block design having each plot size of 6 m×1.5 m, with nine bacterial treatments along with three controls, all with six replicates. […] Plots were harvested at maturity, seed was collected and cleaned, and yield was measured based on 8.5% seed moisture. In addition, canola seed macronutrients (S, N, P, K, Ca and Mg) and micronutrients (Zn, Mn, Cu and Fe) uptake were also determined.

canola plants [1] = experiment: Growth room experiment in sulfur deficient Melfort, SK soil: biomass and yield; conditions: 105 DAP
Experimental: (§1) Effects of bacterial inoculation on plant growth parameters were studied in a growth room with the four screened S-oxidizing strains (RAY12, RAY28, RAY132 and RAY209). More emphasis was given on plant growth characteristics including canola seed yield. Growth room assay was conducted with a sulfur deficient field soil, collected near Melfort, Saskatchewan, and was a loam (pH 7.8, electrical conductivity (mS/cm) 0.2 with following nutrient levels in ppm. nitrate nitrogen 7.3, phosphorous 14.6, potassium 187.1 and sulfur 9.5. Rhizobacterial strains RAY12, RAY28, RAY132 and RAY209 were used for the canola seed inoculation. The experiment was consisting of eight bacterial treatments along with three controls (control—no sulfur; elemental S control; and sulfate S control) each having three replications. One and half kg sieved soil (<5 mm mesh) was added to 16-cm plastic pots and the pots were kept in a growth room (22° C., 16 h light; 18° C., 8 h dark). Five seeds were planted in each of the pots and seedlings were thinned to one per pot after emergence. Daily watering to constant weight ensured similar matric potential between the pots. Canola plants were harvested at maturity (105 DAP) and stalk dry weight, pod number, pod weight and seed weight or yield determined. In another growth room experiment done in similar manner as previous one, canola seed yield, and, seed macronutrients (S, N, P, K, Ca and Mg) and micronutrients (Zn, B, Cu and Fe) uptake were determined.

canola plants [2] = experiment: Second growth room experiment: seed yield and seed nutrient uptake; conditions: seed, per plant
canola plants [3] = experiment: as above; conditions: per plant; for B uptake / Ca uptake / Cu uptake / K uptake / Mg uptake / N uptake / P uptake / S uptake / Zn uptake: seed
Experimental: as §1

Row | Compound | Ca uptake (canola) [kg/ha] | Cu uptake (canola) [g/ha] | Fe uptake (canola) [g/ha] | K uptake (canola) [kg/ha] | Mg uptake (canola) [kg/ha] | Mn uptake (canola) [g/ha] | N uptake (canola) [kg/ha] | P uptake (canola) [kg/ha] | S uptake (canola) [kg/ha] | Zn uptake (canola) [g/ha] | pod no. (canola plants [1]) [NO./PLANT] | pod wt. (canola plants [1]) [G/PLANT] | seed wt. (canola plants [1]) [G/PLANT] | stalk dry wt. (canola plants [1]) [G/PLANT] | Mn uptake (canola plants [2]) [µg] | seed yield (canola plants [3]) [g] | B uptake (canola plants [3]) [µg] | Ca uptake (canola plants [3]) [mg] | Cu uptake (canola plants [3]) [µg] | K uptake (canola plants [3]) [mg] | also measured
1 | [S] [ES, elemental sulfur] | 4.50 | 2.17 | 57.17 | 7.60 | 3.51 | 28.97 | 32.91 | 7.54 | 4.13 | 40.05 | 58 | 3.17 | 1.13 | 3.84 | 1.14 | 2.92 | 0.09 | 12.10 | 0.03 | 28.42 | Mg uptake (canola plants [3]): 11.37 mg; N uptake (canola plants [3]): 116.30 mg; P uptake (canola plants [3]): 28.71 mg; S uptake (canola plants [3]): 18.66 mg; Zn uptake (canola plants [3]): 2.08 µg
2 | sulfate sulfur [SO4] | 5.02 | 2.61 | 68.20 | 9.09 | 4.14 | 37.22 | 39.74 | 8.71 | 5.10 | 51.32 | 78 | 4.20 | 1.71 | 4.56 | 1.22 | 3.11 | 0.13 | 11.71 | 0.03 | 27.52 | Mg uptake (canola plants [3]): 12.12 mg; N uptake (canola plants [3]): 116.30 mg; P uptake (canola plants [3]): 28.24 mg; S uptake (canola plants [3]): 15.76 mg; Zn uptake (canola plants [3]): 1.72 µg
